# Results from article PMC12271471, “Direct synthesis of mycophenolic acid aryl esters with antioxidant and antiproliferative properties” (Scientific Reports, 2025).
# Tests used:
# [1] = DPPH radical scavenging test (colorimetric); conditions: concentration scavenging 50% of DPPH radicals; 10 min, room temperature, 517 nm; mean ± SD
# Experimental: Antioxidative properties of the obtained MPA derivatives were assessed chemically using a colorimetric DPPH test. The IC50 value represents the scavenging activity, defined as the concentration of a compound required to scavenge 50% of DPPH radicals.
# Briefly, 400 µL solution of each synthesized compound with different concentrations (20–1000 µg/mL) was added to 1.6 mL DPPH solution (100 µmol/L). After shaking, the mixture was incubated at room temperature in the dark for 10 min, and then the absorbance was measured at 517 nm. The %Scavenging activity was calculated by using the formula: […]
# The scavenging activity was expressed as IC50 value, defined as the concentration (mM) of compound required for scavenging DPPH radicals by 50%. IC50 values were determined by linear regression analysis using at least three different concentrations in duplicate.
# Three different concentrations were prepared for each sample, while each one was analyzed in duplicate. […] The statistical analysis was performed using Tukey’s HSD test (p < 0.05). The statistical software Statistica 10 software (StatSoft Inc., Tulsa, OK, USA) was implemented for this analysis.
# T-Jurkat cells [2] = experiment: VPD450 proliferation test (flow cytometry) on T-Jurkat cells; assay type: cell-based, human; conditions: for EC50: Homo sapiens, T-Jurkat, 48 h, mean ± SD; for IS internal selectivity (EC50 PBMCs / EC50 T-Jurkat): ratio between VPD450 EC50 values for PBMCs and T-Jurkat cell line
# Experimental: (§1) These values indicate the concentration of any compound at which proliferation of PBMCs (healthy cells), and T-Jurkat cells (T-cell leukemia), is inhibited by 50% compared to the control. Cells were treated with the compounds for 72 h (PBMCs) or 48 h (T-Jurkat), followed by a […] VPD450 test. The results are presented in ESI Fig. S3 as proliferation curves concerning concentration.
# (§2) ESI Figure 3. Concentration-dependent change in proliferation under the treatment of ester derivatives of MPA. (A) VPD450-labelled PBMCs were cultured in the presence of different concentrations (100; 50; 25; 10; 1; 0.1, and 0.01 μM) of MPA, MMF, and ester derivatives, and stimulated with magnetic beads coated with anti-CD3 and anti-CD28 antibodies for 72 hours. (B) VPD450-labelled T-Jurkat cells were cultured in the presence of different concentrations (100; 10; 1; 0.1 and 0.01 μM) of MPA and ester derivatives for 48 hours. The plots were separated based on the type of ester derivative (P or MP). Cell proliferation was analyzed using flow cytometry. The results are expressed […]
# (§3) (1 picture or pasted object on this page, not shown here) […]
# (§4) inhibited cell viability by more than 50%. Each experiment was conducted in triplicate, and the final […]
# (§5) VPD450 dye-based in vitro cell proliferation test
# (§6) PBMCs and T-Jurkat cells were washed twice with warm PBS (37°C), re-suspended in fresh PBS at a final concentration of 10-30∙10^6 cells/ml, and labelled with 1 µl of VPD450 (BD Biosciences) at 37°C for 15 minutes, with vortexing every 5 minutes to ensure uniform staining. Subsequently, cells were washed with PBS, then with the complete medium (X-VIVO20 for PBMCs and RPMI-1640 for T-Jurkat cells), next re-suspended in fresh complete medium and seeded into 96-well plates at a concentration of 1∙10^6 cells per well. PBMCs were additionally stimulated with magnetic beads coated with anti-CD3 and anti-CD28 antibodies (Invitrogen) at a 2:1 cell-to-bead ratio. To the experimental wells, 100 µl of the MPA derivatives were added to achieve final concentrations of 50, 25, 10, 5, 1, 0.1, and 0.01 µM. In parallel, control wells containing stained but unstimulated cells and stained, stimulated cells were prepared at the same concentration. Cell proliferation was analyzed using an LSRFortessa flow cytometer (BD Biosciences) and Kaluza C Flow Cytometry Analysis Software (Beckman Coulter). […]
# (§7) Statistical analysis was conducted using GraphPad Prism 9 (GraphPad Software Inc).
# (§8) Differences between MMF, MPA and its new derivatives were assessed using a two-tailed unpaired Student’s t-test, with statistical significance defined as p < 0.05. EC50 and IC50 values were determined by fitting data to a four-parameter non-linear regression model in GraphPad Prism 9. Statistical significance was evaluated using the t-test.
# PBMCs [3] = experiment: XTT cytotoxicity test on PBMCs; assay type: cell-based; conditions: Homo sapiens, PBMC, 72 h (ESI: 96 h), viability, mean ± SD, read-out: Relative IC50 PBMCs (XTT)
# Experimental: (§9) Table 3 presents the IC50 values obtained from the XTT test on PBMCs and the T-Jurkat cell line, using MPA and MMF as standards. These values indicate the concentration of each compound required to reduce the viability of PBMCs (healthy cells) and T-Jurkat cells (T-cell leukemia) by 50% compared to the control. Cells were treated with compounds for 72 h (PBMCs) or 48 h (T-Jurkat), followed by a colorimetric XTT test. The results are illustrated in ESI Fig. S2 as a viability curve in relation to concentration.
# Biological evaluation — PBMC and T-Jurkat cells […]
# (§10) Human peripheral blood mononuclear cells (PBMCs) were isolated from buffy coats provided by anonymous, healthy volunteers with an average age of 35±4 years during routine transfusion procedure. These samples were received by the Authors from the Regional Centre for Blood Donation and Treatment in Gdańsk (Poland). […]
# (§11) solely for PBMCs isolation. PBMCs were suspended in a complete X-VIVO medium, consisting of X-VIVO20, 10% heat-inactivated human AB serum, penicillin (100 U/ml), and streptomycin ([…]).
# (§12) MPA derivatives preparation
# (§13) To achieve the desired concentrations of the tested compounds, the substances were first dissolved in DMSO to reach a final concentration of 0.01 M. The solutions were then diluted in the appropriate additive-free medium (RPMI-1640 for T-Jurkat cells and X-VIVO20 for PBMCs) to obtain […]
# (§14) Peripheral blood mononuclear cells were isolated by gradient centrifugation, as described previously. Buffy coats were diluted with phosphate-buffered saline (PBS, pH = 7.4, ThermoFisher Scientific) in a 1:1 ratio, layered at Ficoll-Paque™ PLUS (VWR International), and centrifuged at 800 × g for 20 minutes. The PBMC layer was collected and washed twice with PBS (1st wash: 600 × g for 10 minutes; 2nd wash: 600 × g for 5 minutes). Cell amount and viability were assessed using the Bio-Rad TC20™ automated cell counter combined with trypan blue staining.
# (§15) XTT dye-based in vitro cytotoxicity test
# (§16) The cytotoxic effects of mycophenolic acid (MPA) derivatives were assessed using an in vitro XTT-based assay (Roche). PBMCs in complete X-VIVO20 medium and T-Jurkat cells in complete RPMI-1640 medium were seeded into 96-well plates at a concentration of 5∙10^5 cells/50 µl per well. 50 µl of tested compounds were added to the experimental wells to achieve final concentrations of 50, 25, 10, 5, 1, 0.1, and 0.01 µM. The background control consisted of the medium without cells, while untreated cells served as the positive control. After incubating for 48 hours for T-Jurkat cells and 96 hours for PBMCs in a humidified atmosphere with 5% CO2 at 37°C, 50 µl of freshly prepared XTT reagent was added to all wells according to the manufacturer's instructions. The plates were then incubated for an additional 24 hours under the same conditions. The conversion of the water-soluble yellow XTT tetrazolium salt to orange formazan was quantified by measuring the optical density (OD) at 450 nm using an Agilent BioTek Epoch Microplate Spectrophotometer (Agilent Technologies), with a reference wavelength of 690 nm. The results were expressed as IC50 values for compounds that […]
# (§17) inhibited cell viability by more than 50%. […]
# PBMCs were suspended in a 15 mL centrifuge tube at a concentration of 10-30 × 10⁶ cells in 1 mL of PBS, then, 2 μL of 1 mM VPD 450 dye solution was added, incubated for 15 min at 37°C, washed with a 9-fold volume of warm PBS and centrifuged at 400 x g for 5 min. Then, the cells were suspended in 10 mL of X-VIVO medium with 10% FBS and centrifuged again at 400 x g for 5 min. After suspending the cells in the complete medium, the staining level was checked using flow cytometry. The cells thus obtained were stimulated with anti-CD3/anti-CD28 antibodies as described previously (see VPD450 dye-based in vitro cell proliferation test). To perform the GMP test, a proper amount of GMP was added to each well to reach its final concentration of 50 μM, and then incubated for 72 hours. Proliferative […]
# PBMCs [4] = experiment: VPD450 proliferation test (flow cytometry) on PBMCs; assay type: cell-based, human; conditions: for EC50: Homo sapiens, PBMC, PBMCs stimulated with anti-CD3/anti-CD28 beads, 72 h, mean ± SD; for SI selectivity index PBMCs (IC50/EC50): ratio between IC50 (XTT) and EC50 (VPD450) on PBMCs
# Experimental: as §1, §2, §3, §4, §5, §6, §7, §8
# T-Jurkat cells [5] = experiment: XTT cytotoxicity test on T-Jurkat cell line; assay type: cell-based, human
# Experimental: as §9
# Biological evaluation — PBMC and T-Jurkat cells
# The T-Jurkat cell line (Clone E6-1, ATCC TIB-152), derived from a human acute T-cell leukemia, was obtained from the cell bank of the Department of Medical Immunology at the Medical University of Gdańsk. Before experimentation, the cells were thawed and cultured for about 7 days to reach the logarithmic phase of growth. The T-Jurkat cell line was suspended in a complete RPMI medium, which included RPMI-1640, 10% FBS, penicillin (100 U/ml), and streptomycin ([…]).
# as §10, §11, §12, §13, §14, §15, §16, §17
# PBMCs were suspended in a 15 mL centrifuge tube at a concentration of 10-30 × 10⁶ cells in 1 mL of PBS, then, 2 μL of 1 mM VPD 450 dye solution was added, incubated for 15 min at 37°C, washed with a 9-fold volume of warm PBS and centrifuged at 400 x g for 5 min. Then, the cells were suspended […]
Structure (SMILES),IC50 [1],EC50 (T-Jurkat cells [2]),SI selectivity index T-Jurkat (IC50/EC50) (T-Jurkat cells [2]; ratio between IC50 (XTT) and EC50 (VPD450) on T-Jurkat cell line),IS internal selectivity (EC50 PBMCs / EC50 T-Jurkat) (T-Jurkat cells [2]),IC50 (PBMCs [3]),EC50 (PBMCs [4]),SI selectivity index PBMCs (IC50/EC50) (PBMCs [4]),"IC50 (T-Jurkat cells [5]; Homo sapiens, T-Jurkat, 48 h, viability, mean ± SD, read-out: Relative IC50 T-Jurkat (XTT))",IS internal selectivity (IC50 PBMCs / IC50 T-Jurkat) (T-Jurkat cells [5]; ratio between XTT IC50 values for PBMCs and T-Jurkat cell line)
"O=C1O[C@H]([C@@H](O)CO)C(O)=C1O [Ascorbic acid, reference compound]",545 µM,,,,,,,,
COc1cc(/C=C/C(C)=O)ccc1OC(=O)CC/C(C)=C/Cc1c(O)c2c(c(C)c1OC)COC2=O [MP5],,1.08 ± 0.036 µM,2.149,10.542,30.698 ± 0.024 µM,11.406 ± 0.003 µM,2.691,2.325 ± 0.004 µM,13.203
COc1cc(CCC(C)=O)ccc1OC(=O)CC/C(C)=C/Cc1c(O)c2c(c(C)c1OC)COC2=O [MP6],14900 ± 340 µM,0.662 ± 0.031 µM,,1.755,14.71 ± 0.045 µM,1.162 ± 0.003 µM,12.664,,
C=C[C@@](C)(/C=C/c1ccc(OC(=O)CC/C(C)=C/Cc2c(O)c3c(c(C)c2OC)COC3=O)cc1)CCC=C(C)C [P3],20100 ± 258 µM,1.34 ± 0.035 µM,,,14.117 ± 0.007 µM,1.052 ± 0.004 µM,13.419,,
COc1c(C)c2c(c(O)c1C/C=C(\C)CCC(=O)Oc1ccc(/C=C/C(C)=O)cc1)C(=O)OC2 [P6],35800 ± 403 µM,2.84 ± 0.033 µM,,0.780,8.836 ± 0.02 µM,2.215 ± 0.004 µM,3.989,,
"Cc1c(C)c2c(c(C)c1O)CCC(C)(C(=O)O)O2 (stereo not drawn) [Trolox, reference compound]",8 µM,,,,,,,,
